Test results as given in ChEMBL document CHEMBL5512651, “Synthesis and biological evaluation of 4-imidazolidinone-containing compounds as potent inhibitors of the MDM2/p53 interaction” (Eur J Med Chem, 2024).
The source made the active and inactive calls. No cut-off for these calls is given here.

Key:
[1] = molecular target: Tumour suppressor protein p53/Mdm4 (Homo sapiens, UniProt O15151); experiment: Inhibition of MDM4/p53 (unknown origin) interaction by fluorescence polarization assay; type: protein assay
Tumour suppressor protein p53/Mdm4, sequence (P04637 whole entry): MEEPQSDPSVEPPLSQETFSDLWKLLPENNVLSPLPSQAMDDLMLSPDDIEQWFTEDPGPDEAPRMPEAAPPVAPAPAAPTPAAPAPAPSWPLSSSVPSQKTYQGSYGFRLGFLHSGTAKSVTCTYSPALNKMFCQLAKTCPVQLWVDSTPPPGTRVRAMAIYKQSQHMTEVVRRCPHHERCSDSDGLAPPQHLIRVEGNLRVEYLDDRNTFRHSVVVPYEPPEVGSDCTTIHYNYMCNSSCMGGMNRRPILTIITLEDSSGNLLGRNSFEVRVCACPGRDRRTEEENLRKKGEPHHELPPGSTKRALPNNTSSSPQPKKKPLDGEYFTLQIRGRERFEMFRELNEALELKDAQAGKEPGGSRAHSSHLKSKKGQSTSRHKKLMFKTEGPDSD
Tumour suppressor protein p53/Mdm4, sequence (O15151 whole entry): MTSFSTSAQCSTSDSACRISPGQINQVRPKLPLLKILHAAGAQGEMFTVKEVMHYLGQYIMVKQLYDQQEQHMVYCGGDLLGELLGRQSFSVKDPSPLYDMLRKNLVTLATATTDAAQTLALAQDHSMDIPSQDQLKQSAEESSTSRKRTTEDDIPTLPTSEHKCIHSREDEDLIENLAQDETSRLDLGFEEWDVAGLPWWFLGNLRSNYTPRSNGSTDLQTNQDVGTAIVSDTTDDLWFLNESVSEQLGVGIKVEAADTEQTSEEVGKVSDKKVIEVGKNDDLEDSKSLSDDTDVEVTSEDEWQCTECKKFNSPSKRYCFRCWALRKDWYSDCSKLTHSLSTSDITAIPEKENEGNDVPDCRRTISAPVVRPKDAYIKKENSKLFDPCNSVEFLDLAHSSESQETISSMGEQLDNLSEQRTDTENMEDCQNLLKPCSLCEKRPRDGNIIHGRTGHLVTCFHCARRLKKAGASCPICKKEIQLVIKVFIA

[2] = molecular target: Tumour suppressor p53/oncoprotein Mdm2 (Homo sapiens, UniProt Q00987); experiment: Inhibition of MDM2/p53 (unknown origin) interaction by fluorescence polarization assay; type: protein assay
Tumour suppressor p53/oncoprotein Mdm2, sequence (P04637 whole entry): as the sequence (P04637 whole entry) above
Tumour suppressor p53/oncoprotein Mdm2, sequence (Q00987 whole entry): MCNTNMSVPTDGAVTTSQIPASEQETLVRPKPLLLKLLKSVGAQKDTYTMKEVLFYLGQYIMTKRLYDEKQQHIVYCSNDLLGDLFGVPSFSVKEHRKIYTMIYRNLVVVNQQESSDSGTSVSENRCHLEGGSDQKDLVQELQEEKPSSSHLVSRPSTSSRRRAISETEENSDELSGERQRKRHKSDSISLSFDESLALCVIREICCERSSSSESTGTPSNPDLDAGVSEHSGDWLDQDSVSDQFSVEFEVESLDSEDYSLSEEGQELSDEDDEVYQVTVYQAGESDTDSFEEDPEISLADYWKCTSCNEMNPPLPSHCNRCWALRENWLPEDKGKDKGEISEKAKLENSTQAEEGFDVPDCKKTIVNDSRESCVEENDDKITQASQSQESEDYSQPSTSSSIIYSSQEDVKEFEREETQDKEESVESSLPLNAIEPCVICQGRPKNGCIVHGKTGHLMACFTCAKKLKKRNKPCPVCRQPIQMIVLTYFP

MOLM-13 [3] = experiment: cells; conditions: Homo sapiens, MOLM-13, 48 h
HCT-116 = experiment: cells; conditions: Homo sapiens, HCT-116, 96 h
[4] = molecular target: Cellular tumor antigen p53 (Homo sapiens) (UniProt P04637); experiment: Activation of p53 pathway in human MOLM-13 cells assessed as increase in PUMA mRNA level incubated for 24 hrs by qPCR analysis; type: cell-based; conditions: filed as activator, dose 0.038-0.6 µM
Cellular tumor antigen p53 (Homo sapiens), sequence (P04637 whole entry, looked up): as the sequence (P04637 whole entry) above

[5] = Selectivity index, ratio of IC50 for HEK293 cells to IC50 for human A549 cells; type: toxicity; conditions: HEK293 cells versus A549 cells, read-out: Ratio IC50
[6] = Selectivity index, ratio of IC50 for HEK293 cells to IC50 for human HeLa cells; type: toxicity; conditions: HEK293 cells versus HeLa cells, read-out: Ratio IC50
MOLM-13 [7] = experiment: Induction of apoptosis in human MOLM-13 cells assessed as increase in caspase-3 level at 0.15 to 0.6 uM incubated for 24 hrs by Western blot analysis; type: functional, cell-based; conditions: dose 0.15-0.6 µM
A549 = experiment: cells; conditions: Homo sapiens, A549, 96 h
[8] = molecular target: Cellular tumor antigen p53 (Homo sapiens) (UniProt P04637); experiment: Activation of p53 pathway in human MOLM-13 cells assessed as increase in BAX mRNA level incubated for 24 hrs by qPCR analysis; type: cell-based; conditions: filed as activator, dose 0.038-0.6 µM
[9] = molecular target: Cellular tumor antigen p53 (Homo sapiens) (UniProt P04637); experiment: Activation of p53 pathway in human MOLM-13 cells assessed as increase in MDM2 level incubated for 24 hrs by Western blot analysis; type: cell-based; conditions: filed as activator, dose 0.038-0.6 µM
[10] = Antiproliferative activity against HEK293 cells incubated for 4 days by CCK8 assay; type: toxicity, cell-based; conditions: human
[11] = molecular target: Cellular tumor antigen p53 (Homo sapiens) (UniProt P04637); experiment: Activation of p53 pathway in human MOLM-13 cells assessed as increase in p53 level incubated for 24 hrs by Western blot analysis; type: cell-based; conditions: filed as activator, dose 0.038-0.6 µM
SW480 = experiment: cells; conditions: Homo sapiens, SW480, 96 h
[12] = molecular target: Cellular tumor antigen p53 (Homo sapiens) (UniProt P04637); experiment: Activation of p53 pathway in human MOLM-13 cells assessed as increase in MDM2 mRNA level incubated for 24 hrs by qPCR analysis; type: cell-based; conditions: filed as activator, dose 0.038-0.6 µM
HeLa = experiment: cells; conditions: Homo sapiens, 96 h
MOLM-13 [13] = experiment: Induction of apoptosis in human MOLM-13 cells assessed as increase in PARP cleavage at 0.15 to 0.6 uM incubated for 24 hrs by Western blot analysis; type: functional, cell-based; conditions: dose 0.15-0.6 µM
[14] = molecular target: Cellular tumor antigen p53 (Homo sapiens) (UniProt P04637); experiment: Activation of p53 pathway in human MOLM-13 cells assessed as increase in p21 level incubated for 24 hrs by Western blot analysis; type: cell-based; conditions: filed as activator, dose 0.038-0.6 µM
[15] = molecular target: Cellular tumor antigen p53 (Homo sapiens) (UniProt P04637); experiment: Activation of p53 pathway in human MOLM-13 cells assessed as increase in p21 mRNA level incubated for 24 hrs by qPCR analysis; type: cell-based; conditions: filed as activator, dose 0.038-0.6 µM
[16] = Selectivity index, ratio of IC50 for HEK293 cells to IC50 for human SW480 cells
MOLM-13 [17] = experiment: Induction of apoptosis in human MOLM-13 cells at 0.375 to 6 uM incubated for 24 hrs by Western blot analysis; type: functional, cell-based; conditions: dose 0.375-6 µM

Row | Compound | Ki [1] | Ki [2] | IC50 (MOLM-13 [3]) | IC50 (HCT-116) | also measured
1 | COc1cc(C(=O)O)ccc1N1CN2[C@@H](CC(C)(C)C)[C@@]3(CNc4ccc(Cl)cc43)[C@@H](c3cccc(Cl)c3)[C@@H]2C1=O | > 27000 nM | 67.4 nM | 2580 nM | 8620 nM | –
2 | COc1cccc([C@H]2[C@@H]3C(=O)N(c4ccc(C(=O)O)cc4OC)CN3[C@@H](CC(C)(C)C)[C@@]23CNc2cc(Cl)ccc23)c1 | > 27000 nM | 5.3 nM | 944 nM | 1420 nM | –
3 | COc1cc(C(=O)O)ccc1N1CN2[C@@H](CC(C)(C)C)[C@@]3(CNc4ccc(Cl)cc43)[C@@H](c3cccc(Cl)c3Cl)[C@@H]2C1=O | > 27000 nM | 152 nM | 7590 nM | 9740 nM | –
4 | CCC(C)(CC)C[C@@H]1N2CN(c3ccc(C(=O)O)cc3OC)C(=O)[C@H]2[C@H](c2cccc(Cl)c2)[C@]12CNc1cc(Cl)ccc12 | 854 nM | 1.2 nM | 28.3 nM | 165 nM | –
5 | COc1cc(C(=O)O)ccc1N1CN2[C@@H](CC(C)(C)C)[C@@]3(CNc4cc(Cl)ccc43)[C@@H](c3cccc(Cl)c3F)[C@@H]2C1=O | 3110 nM | 3.1 nM | 0.9 nM | 49.7 nM | –
6 | COc1cc(C(=O)O)ccc1N1CN2[C@@H](CC(C)(C)C)[C@@]3(CNc4cc(Cl)ccc43)[C@@H](c3cccc(F)c3F)[C@@H]2C1=O | > 27000 nM | 3.1 nM | 56.5 nM | 285 nM | –
7 | COc1cc(C(=O)O)ccc1N1CN2[C@@H](CC(C)(C)C)[C@@]3(CNc4cc(Cl)ccc43)[C@@H](c3cccc(F)c3)[C@@H]2C1=O | 3950 nM | 1.2 nM | 39.8 nM | 137 nM | –
8 | COc1cc(C(=O)O)ccc1N1CN2[C@@H](CC(C)(C)C(C)C)[C@@]3(CNc4cc(Cl)ccc43)[C@@H](c3cccc(Cl)c3)[C@@H]2C1=O | 1120 nM | 1.3 nM | 33.1 nM | 88.7 nM | –
9 | COc1cc(C(=O)O)ccc1N1CN2[C@@H](CC(C)(C)C)[C@@]3(CNc4cc(Cl)ccc43)[C@@H](c3cccc(Cl)c3Cl)[C@@H]2C1=O | 5000 nM | 7.6 nM | 1370 nM | 2560 nM | –
10 | COc1cc(C(=O)O)ccc1N1CN2[C@@H](CC(C)(C)C)[C@@]3(CNc4cc(Cl)ccc43)[C@@H](c3ccccc3F)[C@@H]2C1=O | > 27000 nM | 14.8 nM | 1640 nM | 3900 nM | –
11 | COc1cc(C(=O)O)ccc1N1CN2[C@@H](CC(C)(C)C)[C@@]3(CNc4cc(Cl)cnc43)[C@@H](c3cccc(Cl)c3)[C@@H]2C1=O | 3630 nM | 1.2 nM | 204 nM | 610 nM | –
12 | COc1cc(C(=O)O)ccc1N1CN2[C@@H](CC3(C)CCCC3)[C@@]3(CNc4cc(Cl)ccc43)[C@@H](c3cccc(Cl)c3)[C@@H]2C1=O | 734 nM | 0.6 nM | 17 nM | 121 nM | –
13 | COc1cc(C(=O)O)ccc1N1CN2[C@@H](CC(C)(C)C)[C@@]3(CNc4ccc(Cl)cc43)[C@@H](c3ccccc3Cl)[C@@H]2C1=O | > 27000 nM | 1090 nM | 7280 nM | 12700 nM | –
14 | CCC(C)(C)C[C@@H]1N2CN(c3ccc(C(=O)O)cc3OC)C(=O)[C@H]2[C@H](c2cccc(Cl)c2)[C@]12CNc1cc(Cl)ccc12 | 1130 nM | 1 nM | 5.5 nM | 28.5 nM | Activity [4]: Dose-Dependent Effect; selectivity ratio [5]: 93; selectivity ratio [6]: 0.8; Activity (MOLM-13 [7]): Active; IC50 (A549): 102 nM; Activity [8]: Dose-Dependent Effect; Activity [9]: Dose-Dependent Effect; IC50 at 4 days [10]: 9530 nM; Activity [11]: Dose-Dependent Effect; IC50 (SW480): 4920 nM; Activity [12]: Dose-Dependent Effect; IC50 (HeLa): 11800 nM; Activity (MOLM-13 [13]): Active; Activity [14]: Dose-Dependent Effect; Activity [15]: Dose-Dependent Effect; Ratio IC50 [16]: 1.9
15 | COc1ccc(C2=N[C@@H](c3ccc(Cl)cc3)[C@@H](c3ccc(Cl)cc3)N2C(=O)N2CCNC(=O)C2)c(OC(C)C)c1 [NUTLIN-3] | – | – | 199 nM | – | IC50 (A549): 2050 nM; IC50 at 4 days [10]: 26700 nM; IC50 (SW480): 16400 nM; IC50 (HeLa): 31400 nM; Activity (MOLM-13 [17]): Active
16 | CCN1[C@@H](CC(C)(C)C)[C@@]2(CNc3cc(Cl)ccc32)[C@@H](c2cccc(Cl)c2)[C@@H]1C(=O)Nc1ccc(C(=O)O)cc1OC | – | – | 0.2 nM | 13.6 nM | –
17 | COc1cc(C(=O)O)ccc1N1CN2[C@@H](CC3(C)CCOCC3)[C@@]3(CNc4cc(Cl)ccc43)[C@@H](c3cccc(Cl)c3)[C@@H]2C1=O | 3370 nM | 2.7 nM | 139 nM | 562 nM | –
18 | COc1cc(C(=O)O)ccc1N1CN2[C@@H](CC(C)(C)C)[C@@]3(CNc4cc(Cl)ccc43)[C@@H](c3ccc(Cl)cc3)[C@@H]2C1=O | > 27000 nM | 27.9 nM | 2200 nM | 2580 nM | –
19 | CC(C)(C)C[C@@H]1N[C@@H](C(=O)N[C@H]2CC[C@H](O)CC2)[C@H](c2cccc(Cl)c2F)[C@]12C(=O)Nc1cc(Cl)ccc12 [SAR-405838] | 36800 nM | – | 115 nM | 227 nM | –
20 | COc1cc(C(=O)O)ccc1N1CN2[C@@H](CC(C)(C)C)[C@@]3(CNc4ccc(Cl)cc43)[C@@H](c3ccc(Cl)cc3)[C@@H]2C1=O | > 27000 nM | > 27000 nM | 8400 nM | 12800 nM | –
21 | COc1cc(C(=O)O)ccc1N1CN2[C@@H](CC(C)(C)C)[C@@]3(CNc4cc(Cl)ccc43)[C@@H](c3ccc(F)cc3)[C@@H]2C1=O | > 27000 nM | 9.6 nM | 529 nM | 1300 nM | –
22 | COc1cc(C(=O)O)ccc1N1CN2[C@@H](CC(C)(C)C)[C@@]3(CNc4cc(Cl)ccc43)[C@@H](c3ccccc3Cl)[C@@H]2C1=O | > 27000 nM | 32.8 nM | 5490 nM | 9060 nM | –
23 | COc1cc(C(=O)O)ccc1N1CN2[C@@H](CC3(C)CCC3)[C@@]3(CNc4cc(Cl)ccc43)[C@@H](c3cccc(Cl)c3)[C@@H]2C1=O | 1770 nM | 1 nM | 380 nM | 598 nM | –
24 | COc1cc(C(=O)O)ccc1N1CN2[C@@H](CC(C)(C)C)[C@@]3(CNc4cc(Cl)ccc43)[C@@H](c3cccc(C)c3)[C@@H]2C1=O | 2170 nM | 5.2 nM | 295 nM | 844 nM | –
25 | COc1cc(NC(=O)[C@@H]2N[C@@H](CC(C)(C)C)[C@](C#N)(c3ccc(Cl)cc3F)[C@H]2c2cccc(Cl)c2F)ccc1C(=O)O | 1690 nM | – | 24.8 nM | 104 nM | IC50 (A549): 373 nM; IC50 at 4 days [10]: 9080 nM; IC50 (SW480): 5460 nM; IC50 (HeLa): 13200 nM
26 | COc1cc(C(=O)O)ccc1N1CN2[C@@H](CC(C)(C)C)[C@@]3(CNc4cc(Cl)ccc43)[C@@H](c3cccc(C(F)(F)F)c3)[C@@H]2C1=O | 5740 nM | 50.5 nM | 6280 nM | 6860 nM | –
27 | COc1cc(C(=O)O)ccc1N1CN2[C@@H](CC3(C)CCCCC3)[C@@]3(CNc4cc(Cl)ccc43)[C@@H](c3cccc(Cl)c3)[C@@H]2C1=O | > 27000 nM | 2.7 nM | 35.5 nM | 136 nM | –
